Data as given in the supplement of paper PMC13380429.
± gives the standard deviation of the averaged measurements.

Tests used:
Conditions in all cases: 72 h
U2OS [1] = assay: drug sensitivity score (DSS) for viability; higher = more toxic; extreme values may be limits of the assay
HepG2 [2] = assay: as above
Calu-3 [3] = assay: as above
Caco-2 [4] = assay: as above
Vero E6 [5] = assay: as above
HepG2 [6] = assay: relative viability EC50 (midpoint between 100% and the lowest measured viability); higher = less toxic
Calu-3 [7] = assay: as above
U2OS [8] = assay: cell viability relative to DMSO; higher = less toxic
HepG2 [9] = assay: as above
Calu-3 [10] = assay: as above
Caco-2 [11] = assay: as above
Vero E6 [12] = assay: as above
U2OS [13] = assay: relative viability EC50 (midpoint between 100% and the lowest measured viability); higher = less toxic
Caco-2 [14] = assay: as above
Vero E6 [15] = assay: as above

| SMILES | drug sensitivity score (U2OS [1]) | drug sensitivity score (HepG2 [2]) | drug sensitivity score (Calu-3 [3]) | drug sensitivity score (Caco-2 [4]) | drug sensitivity score (Vero E6 [5]) | relative viability EC50 (HepG2 [6]) | relative viability EC50 (Calu-3 [7]) | cell viability (U2OS [8]; 1 nM) | cell viability (U2OS [8]; 10 nM) | cell viability (U2OS [8]; 100 nM) | cell viability (U2OS [8]; 1000 nM) | cell viability (U2OS [8]; 10000 nM) | cell viability (HepG2 [9]; 1 nM) | cell viability (HepG2 [9]; 10 nM) | cell viability (HepG2 [9]; 100 nM) | cell viability (HepG2 [9]; 1000 nM) | cell viability (HepG2 [9]; 10000 nM) | cell viability (Calu-3 [10]; 1 nM) | cell viability (Calu-3 [10]; 10 nM) | cell viability (Calu-3 [10]; 100 nM) | cell viability (Calu-3 [10]; 1000 nM) | cell viability (Calu-3 [10]; 10000 nM) | cell viability (Caco-2 [11]; 1 nM) | cell viability (Caco-2 [11]; 10 nM) | cell viability (Caco-2 [11]; 100 nM) | cell viability (Caco-2 [11]; 1000 nM) | cell viability (Caco-2 [11]; 10000 nM) | cell viability (Vero E6 [12]; 1 nM) | cell viability (Vero E6 [12]; 10 nM) | cell viability (Vero E6 [12]; 100 nM) | cell viability (Vero E6 [12]; 1000 nM) | cell viability (Vero E6 [12]; 10000 nM) | relative viability EC50 (U2OS [13]) | relative viability EC50 (Caco-2 [14]) | relative viability EC50 (Vero E6 [15]) |
| --- | --- | --- | --- | --- | --- | --- | --- | --- | --- | --- | --- | --- | --- | --- | --- | --- | --- | --- | --- | --- | --- | --- | --- | --- | --- | --- | --- | --- | --- | --- | --- | --- | --- | --- | --- |
| COC(=O)C1=C(C)NC(C)=C(C(=O)OCC(C)C)C1c1ccccc1[N+](=O)[O-] (stereo not drawn) [nisoldipine] | 2.6 | 4.4 | 0 | 2.8 | 2.8 | 2.1 µM | > 10 µM | 101% | 106% | 102% | 99.4% | 51.1% | 100% | 98.7% | 104% | 92.4% | 42.6% | 97.6% | 106% | 107% | 94.6% | 103% | 98.2% | 109% | 99.1% | 93.8% | 63.1% | 100% | 101% | 102% | 94.6% | 60.7% | – | – | – |
| CCCCC1C(=O)N(c2ccccc2)N(c2ccccc2)C1=O [phenylbutazone] | 0 | 0 | 0 | – | 0 | – | – | – | – | – | – | – | – | – | – | – | – | – | – | – | – | – | – | – | – | – | – | – | – | – | – | – | – | – | – |
| Cc1ccnc(NC(=O)C(C)c2cccc(C(=O)c3ccccc3)c2)c1 (stereo not drawn) [piketoprofen] | 0 | 0.3 | – | 0 | 0 | > 10 µM | – | 105% | 102% | 97.7% | 103% | 95.3% | 103% | 89.3% | 111% | 107% | 80.8% | – | – | – | – | – | 96.7% | 87.3% | 91.7% | 93.5% | 91.5% | 98.3% | 98.8% | 99.8% | 106% | 96.1% | > 10 µM | > 10 µM | > 10 µM |
| COc1ccc(Cl)c(Nc2nc3ccccc3nc2NS(=O)(=O)c2cccc(NC(=O)C(C)(C)N)c2)c1 [pilaralisib] | 1.1 | 3.8 | 3.5 | 2.4 | 0.6 | – | – | 97.9% | 94.4% | 98.9% | 94.1% | 81.4% | 96.9% | 97.5% | 96.9% | 86.6% | 57.9% | 93.9% | 86% | 96.8% | 88% | 60.2% | 91.3% | 96.4% | 109% | 93.9% | 68.3% | 97% | 98.7% | 93.8% | 99.4% | 81.2% | > 10 µM | – | > 10 µM |
| O=C(CCBr)N1CCN(C(=O)CCBr)CC1 [pipobroman] | 0 | 0 | – | 0 | – | > 10 µM | – | 97.8% | 104% | 99.7% | 97.7% | 94% | 90.2% | 112% | 101% | 83.7% | 102% | – | – | – | – | – | 115% | 115% | 97.3% | 114% | 99% | – | – | – | – | – | > 10 µM | > 10 µM | – |
| O=C(O)c1c(Cl)c(Cl)c(Cl)c(Cl)c1-c1c2cc(I)c(=O)c(I)c-2oc2c(I)c(O)c(I)cc12 [rose-bengal] | 3.6 ± 0.42 | 3.8 ± 0.85 | 3 ± 1.4 | 4.6 ± 0.14 | 3.7 ± 0.42 | – | – | 99.5 ± 3% | 101 ± 7.5% | 98.8 ± 0.28% | 92.65 ± 0.49% | 54 ± 5.6% | 98.5 ± 1.1% | 92.7 ± 7% | 102 ± 3.8% | 86.2 ± 5.3% | 61.6 ± 4.2% | 96 ± 5.7% | 96.7 ± 3.9% | 97.2 ± 4.7% | 97.8 ± 12% | 54.4 ± 0.71% | 96.1 ± 5.2% | 93.7 ± 6.9% | 98.4 ± 7.9% | 83.3 ± 0.92% | 52.2 ± 6.1% | 97.6 ± 4% | 99.6% | 101 ± 3% | 90.5 ± 0.42% | 57.1 ± 5.8% | – | – | – |
| O=C(O)C(O)C(O)C(=O)O (stereo not drawn) [tartaric-acid] | 0 | 0 | 0 | – | 0 | – | – | – | – | – | – | – | – | – | – | – | – | – | – | – | – | – | – | – | – | – | – | – | – | – | – | – | – | – | – |
| CC(C)(C)c1cc(/C=C(\C#N)C(N)=S)cc(C(C)(C)C)c1O [tyrphostin-AG-879] | 1.8 | 3.6 | 2.9 | 3.8 | 2.6 | 3.56 µM | – | 98.9% | 98.7% | 98.7% | 98.2% | 65.7% | 93.6% | 94.7% | 104% | 106% | 27.5% | 101% | 97.1% | 99.4% | 91% | 66.8% | 99.3% | 94.6% | 96.9% | 93.2% | 50.5% | 97.4% | 97.5% | 94.3% | 100% | 51% | – | – | – |
| CN[C@H]1CN(c2ccc3c(=O)c(C(=O)O)cn(-c4nccs4)c3n2)C[C@@H]1OC [voreloxin] | 3.6 | 6.9 | 4.1 | 3.7 | 4 | 1.29 µM | – | 100% | 97.6% | 103% | 98% | 38.3% | 90.7% | 108% | 88.5% | 72.6% | 29.1% | 101% | 98.9% | 104% | 85.6% | 58.9% | 94.1% | 93.2% | 99.9% | 91.6% | 55.1% | 96.9% | 96.2% | 96.7% | 88.1% | 56.1% | 2.93 µM | – | – |
| Cc1cccc(C)c1NC(=O)/N=C1\CCCN1C [xilobam] | 0 | 0 | 0 | – | 0 | – | – | – | – | – | – | – | – | – | – | – | – | – | – | – | – | – | – | – | – | – | – | – | – | – | – | – | – | – | – |
